Measurements taken from patent US8293729B2 (Boehringer Ingelheim International GmbH, priority 2009, dated 2012).

Molecular target: T1, human GPR119 receptor (Homo sapiens, UniProt Q8TDV5, S329A/T327A)
T1 construct: N-terminal leader […]; expressed in transfected cells
T1 sequence (Q8TDV5 with tags, fused parts or gaps T327A/S329A): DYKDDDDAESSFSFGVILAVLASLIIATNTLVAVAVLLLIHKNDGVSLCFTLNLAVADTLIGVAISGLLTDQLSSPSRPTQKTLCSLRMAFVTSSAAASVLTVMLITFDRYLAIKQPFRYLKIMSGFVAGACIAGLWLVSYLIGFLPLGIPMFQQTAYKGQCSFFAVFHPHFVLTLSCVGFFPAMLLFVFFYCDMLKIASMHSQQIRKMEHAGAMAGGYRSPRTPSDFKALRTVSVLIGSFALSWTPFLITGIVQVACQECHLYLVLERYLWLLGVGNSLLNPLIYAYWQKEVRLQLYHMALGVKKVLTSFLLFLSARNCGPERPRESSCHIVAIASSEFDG
Experiment: cAMP assay (LANCE cAMP-384) in HEK293 cells stably expressing mutant human GPR119 receptor
Format: cell-based
Details: HEK293, 20 min; at 10 μM; printed in EC50 column of the 36th table; read-out: stimulation in % at 10 μM
Method in brief: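 Agonist EC50 came from nonlinear regression over 12 concentrations (30 μM–100 pM), with % stimulation at 10 μM where no EC50 was obtained. Cells: stable HEK293 with mutant human GPR119 (T327A/S329A), 20 min compound at 37° C; cAMP read by LANCE kit with standard curve.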

Row | SMILES | activation at 10 µM
1 | Cc1cc(CN2CCC(ON=C3CCN(c4ccc(S(C)(=O)=O)cc4F)CC3)CC2)oc1C [Example 66-34] | 75%
2 | Cc1ccc(CN2CCC(ON=C3CCN(c4ccc(S(C)(=O)=O)cc4F)CC3)CC2)c(F)c1F [Example 66-48] | 99%
3 | CC(CCN1CCC(ON=C2CCN(c3ccc(S(C)(=O)=O)cc3F)CC2)CC1)c1ccccc1 (stereo not shown) [Example 66-24] | 53%

Same assay, conditions: HEK293, 20 min; single concentration 10 μM; given where no EC50 value could be determined; read-out: % stimulation at 10 μM

Row | SMILES | activation at 10 µM
4 | CC(C)OC(=O)N1CCC(ON=C2CCN(c3ncc(Cl)cc3F)CC2)CC1 [Example 2-68] | 63%
5 | CC(C)OC(=O)N1CCC(ON=C2CCN(c3cc(Br)ccn3)CC2)CC1 [Example 2-67] | 54%

Same assay, conditions: cAMP accumulation, HEK293 cells stably expressing mutant human GPR119; read-out: EC50

Row | SMILES | EC50
6 | CC(C)OC(=O)N1CCC(ON=C2CCN(c3nc(F)c(F)cc3F)CC2)CC1 [Example 2-75] | 453 nM
7 | CC(C)OC(=O)N1CCC(ON=C2CCN(c3cc(F)c(CN(C)C)cc3F)CC2)CC1 [Example 5-8] | > 10000 nM
8 | CC(C)OC(=O)N1CCC(ON=C2CCN(c3cc(F)c(-c4ncccn4)cc3F)CC2)CC1 [Example 27-20] | 272 nM
9 | CCc1cnc(-c2cc(F)c(N3CCC(=NOC4CCN(C(=O)OC(C)C)CC4)CC3)cc2F)nc1 [Example 27-21] | 509 nM
10 | CC(C)OC(=O)N1CCC(ON=C2CCN(c3ccncc3F)CC2)CC1 [Example 2-72] | 750 nM
11 | Cc1cccc(N2CCC(=NOC3CCN(C(=O)OC(C)C)CC3)CC2)n1 [Example 2-8] | > 10000 nM
12 | CC(C)OC(=O)N1CCC(ON=C2CCN(c3cc(F)c(-n4cccn4)cc3F)CC2)CC1 [Example 22-3] | 62 nM
13 | CC(C)OC(=O)N1CCC(ON=C2CCN(c3cc(F)c(N(S(C)(=O)=O)S(C)(=O)=O)cc3F)CC2)CC1 [Example 2-63] | > 10000 nM
14 | CC(C)OC(=O)N1CCC(ON=C2CCN(c3cc(F)c(-c4cscn4)cc3F)CC2)CC1 [Example 27-19] | 3080 nM
15 | CC(C)OC(=O)N1CCC(ON=C2CCN(c3cc(F)c(-c4ccoc4)cc3F)CC2)CC1 [Example 27-3] | 591 nM
16 | CC(C)OC(=O)N1CCC(ON=C2CCN(c3cc(F)c(Cn4nccn4)cc3F)CC2)CC1 [Example 14-13] | 16 nM
17 | CC(C)OC(=O)N1CCC(ON=C2CCN(c3cc(F)c(CNCc4nccs4)cc3F)CC2)CC1 [Example 5-11] | 332 nM
18 | CC(C)OC(=O)N1CCC(ON=C2CCN(c3nc(Cl)ccc3CO)CC2)CC1 [Example 2-27] | > 10000 nM
19 | CC(C)OC(=O)N1CCC(ON=C2CCN(c3cc(F)c(CN4CCOC(CC(=O)O)C4)cc3F)CC2)CC1 (stereo not shown) [Example 5-2] | 5880 nM
20 | Cc1cnn(Cc2cc(F)c(N3CCC(=NOC4CCN(C(=O)OC(C)C)CC4)CC3)cc2F)c1 [Example 14-10] | 8 nM
21 | CC(C)OC(=O)N1CCC(ON=C2CCN(c3cc(F)c(-c4ccncc4)cc3F)CC2)CC1 [Example 27-5] | 378 nM
22 | CNCCNC(=O)c1cc(F)c(N2CCC(=NOC3CCN(C(=O)OC(C)C)CC3)CC2)cc1F [Example 31-1, 4-{1-[2,5-Difluoro-4-(2-methylamino-ethylcarbamoyl)-phenyl]-piperidin-4-ylideneaminooxy}-piperidine-1-carboxylic acid isopropyl ester] | 424 nM
23 | Cc1ccc(-c2cc(F)c(N3CCC(=NOC4CCN(C(=O)OC(C)C)CC4)CC3)cc2F)nc1 [Example 27-26] | 861 nM
24 | CC(C)OC(=O)N1CCC(ON=C2CCN(c3ncc([N+](=O)[O-])s3)CC2)CC1 [Example 2-13] | 5110 nM
25 | CC(C)OC(=O)N1CCC(ON=C2CCN(c3cc(F)c(CSCC(=O)O)cc3F)CC2)CC1 [Example 13-2] | 2410 nM
26 | CC(C)OC(=O)N1CCC(ON=C2CCN(c3nccc(Cl)n3)CC2)CC1 [Example 2-47] | 2010 nM
27 | CC(C)OC(=O)N1CCC(ON=C2CCN(c3ccc(C=O)cc3F)CC2)CC1 [Example 2-22] | 318 nM
28 | CC(C)OC(=O)N1CCC(ON=C2CCN(c3cc(F)c(CN(C)S(C)(=O)=O)cc3F)CC2)CC1 [Example 18-2] | 150 nM

Same assay, conditions: the 15th table; read-out: EC50

Row | SMILES | EC50
29 | CC(C)OC(=O)N1CCC(ON=C2CCN(c3cc(F)c(C(=O)N4CCCC[C@H]4CN4CCCC4)cc3F)CC2)CC1 [Example 29-31] | 225 nM
30 | CC(C)OC(=O)N1CCC(ON=C2CCN(c3cc(F)c(C(=O)N4CCCCC4CN)cc3F)CC2)CC1 (stereo not shown) [Example 29-57] | 185 nM

Same assay, conditions: the 19th table; unit inferred; read-out: EC 50

Row | SMILES | EC50
31 | CCc1cnc(N2CCC(ON=C3CCN(c4cc(F)c(C(=O)NCC5CCCN5)cc4F)CC3)CC2)nc1 (stereo not shown) [Example 29-121] | 139 nM
32 | CCc1cnc(N2CCC(ON=C3CCN(c4cc(F)c(C(=O)N5CC[C@@H](N)C5)cc4F)CC3)CC2)nc1 [Example 29-118] | 201 nM
33 | CCc1cnc(N2CCC(ON=C3CCN(c4cc(F)c(C(=O)NC5CCCNC5)cc4F)CC3)CC2)nc1 (stereo not shown) [Example 29-127] | 322 nM
34 | CCc1cnc(N2CCC(ON=C3CCN(c4cc(F)c(C(=O)N5CCC(CNC)CC5)cc4F)CC3)CC2)nc1 [Example 29-130] | 206 nM

Same assay, conditions: the 25th table; read-out: EC50

Row | SMILES | EC50
35 | CC(C)OC(=O)N1CCC(ON=C2CCN(c3cc(F)c(/C=C/C#N)cc3F)CC2)CC1 [Example 39-2] | 157 nM

Same assay, conditions: the 26th table; read-out: EC50

Row | SMILES | EC50
36 | CC(C)OC(=O)N1CCC(ON=C2CCN(c3ncc(S(C)(=O)=O)cn3)CC2)CC1 [Example 46-4] | 157 nM

Same assay, conditions: the 30th table; read-out: EC50

Row | SMILES | EC50
37 | CC(C)OC(=O)N1CCC(ON=C2CCN(c3ncc(Cn4nccn4)cc3F)CC2)CC1 [Example 54-3] | 765 nM
38 | CC(C)OC(=O)N1CCC(ON=C2CCN(c3ncc(CS(C)(=O)=O)cc3F)CC2)CC1 [Example 54-7] | 484 nM

Same assay, conditions: the 32nd table; read-out: EC50

Row | SMILES | EC50
39 | CS(=O)(=O)c1ccc(N2CCC(=NOC3CCN(c4cc(C(F)(F)F)ccn4)CC3)CC2)c(F)c1 [Example 63-10] | > 10000 nM
40 | CS(=O)(=O)c1ccc(N2CCC(=NOC3CCN(c4ncc(Br)cc4F)CC3)CC2)c(F)c1 [Example 63-25] | 195 nM

Same assay, conditions: the 33rd table; read-out: EC50

Row | SMILES | EC50
41 | CS(=O)(=O)c1ccc(N2CCC(=NOC3CCN(C(=O)OC4CCNC4)CC3)CC2)c(F)c1 (stereo not shown) [Example 64-36] | > 10000 nM
42 | CS(=O)(=O)c1ccc(N2CCC(=NOC3CCN(C(=O)OCC4CNCCO4)CC3)CC2)c(F)c1 (stereo not shown) [Example 64-38] | > 10000 nM
43 | CS(=O)(=O)c1ccc(N2CCC(=NOC3CCN(C(=O)OCC4CCC4)CC3)CC2)c(F)c1 [Example 64-6] | 36 nM
44 | CC[C@H](C)COC(=O)N1CCC(ON=C2CCN(c3ccc(S(C)(=O)=O)cc3F)CC2)CC1 [Example 64-48] | 54 nM
45 | CC(C)[C@@H](N)COC(=O)N1CCC(ON=C2CCN(c3ccc(S(C)(=O)=O)cc3F)CC2)CC1 [Example 64-44] | > 10000 nM

Same assay, conditions: the 34th table, compounds 65-1 to 65-24; read-out: EC50

Row | SMILES | EC50
46 | CS(=O)(=O)c1ccc(N2CCC(=NOC3CCN(C(=O)c4ccccc4)CC3)CC2)c(F)c1 [Example 65-21] | 747 nM
47 | CC(C)(C)NC(=O)N1CCC(ON=C2CCN(c3ccc(S(C)(=O)=O)cc3F)CC2)CC1 [Example 65-11] | 1040 nM

Same assay, conditions: the 36th table, compounds 66-1 to 66-51; read-out: EC50

Row | SMILES | EC50
48 | Cc1nc(CN2CCC(ON=C3CCN(c4ccc(S(C)(=O)=O)cc4F)CC3)CC2)c[nH]1 [Example 66-8] | > 10000 nM
49 | CS(=O)(=O)c1ccc(N2CCC(=NOC3CCN(Cc4ccc(Cl)cc4)CC3)CC2)c(F)c1 [Example 66-28] | 363 nM

Same assay, conditions: the 37th table, compounds 66-52 to 66-64; read-out: EC50

Row | SMILES | EC50
50 | CCc1ccc([C@@H](C)N2CCC(ON=C3CCN(c4cc(F)c(S(C)(=O)=O)cc4F)CC3)CC2)cc1 [Example 66-64] | > 10000 nM
51 | C/C=C/c1ccc(CN2CCC(ON=C3CCN(c4cc(F)c(S(C)(=O)=O)cc4F)CC3)CC2)c(F)c1 [Example 66-62] | 136 nM
52 | CS(=O)(=O)c1cc(F)c(N2CCC(=NOC3CCN(Cc4ccc(Cl)cc4)CC3)CC2)cc1F [Example 66-56] | 50 nM

Same assay, conditions: the 38th table, compounds 66-65 to 66-72; read-out: EC50

Row | SMILES | EC50
53 | CNC(=O)c1cc(F)c(N2CCC(=NOC3CCN(Cc4ccc(-c5cncnc5)cc4)CC3)CC2)cc1F [Example 66-69] | 2260 nM
54 | CCc1ccc(CN2CCC(ON=C3CCN(c4cc(F)c(C(=O)NC)cc4F)CC3)CC2)cc1 [Example 66-71] | 79 nM
55 | CCCc1ccc(CN2CCC(ON=C3CCN(c4cc(F)c(C(=O)NC)cc4F)CC3)CC2)cc1 [Example 66-72] | 109 nM

Same assay, conditions: the 41st table, compounds 73-1, 73-2; unit inferred; read-out: EC50

Row | SMILES | EC50
56 | CS(=O)(=O)c1ccc(N2CCC(=NOC3CCN(C(=O)N4CCCC4)CC3)CC2)c(F)c1 [Example 73-2] | 1510 nM

Same assay, conditions: the 43rd table, compounds 75-1 to 75-38; read-out: EC50

Row | SMILES | EC50
57 | CC(C)OC(=O)N1CCC(ON=C2CCN(c3cc(F)c(CC(=O)N4CCC(CN5CCCCC5)C4)cc3F)CC2)CC1 (stereo not shown) [Example 75-35] | 171 nM
58 | CC(C)OC(=O)N1CCC(ON=C2CCN(c3cc(F)c(CC(=O)N4CCCC(CN(C)C)C4)cc3F)CC2)CC1 (stereo not shown) [Example 75-37] | 155 nM
59 | CC(C)OC(=O)N1CCC(ON=C2CCN(c3cc(F)c(CC(=O)NC4CCCNC4)cc3F)CC2)CC1 (stereo not shown) [Example 75-16] | 122 nM
60 | CC(C)OC(=O)N1CCC(ON=C2CCN(c3cc(F)c(CC(=O)NC[C@H]4CCCN4)cc3F)CC2)CC1 [Example 75-11] | 161 nM

Same assay, conditions: the 44th table, compounds 77-1 to 77-14; read-out: EC50

Row | SMILES | EC50
61 | CCc1cnc(N2CCC(ON=C3CCN(c4cc(F)c(CC(=O)N5CCC(CN(C)C)CC5)cc4F)CC3)CC2)nc1 [Example 77-14] | 6 nM
